Data on 39 molecules can be found in PMC9933440 (Crystal Growth & Design, 2022).

In brackets after ≈: the same amount, converted by molar mass. Several values for one entry are separate records, joined by “and”; a condition that tells them apart may be missing. Equal values may be shown once. Read-outs that look alike come from different tables or passages of the source.

For data set [1] the following is noted: cited from earlier work.
The conditions of data set [2]: cited from earlier work. This is another data set of the same source.
For data set [3] the following is noted: cited from earlier work. This is another data set of the same source.
The nature of data set [4]: Solubility experiments in sodium phosphate buffer pH 6.5, 37 °C (HPLC). As to conditions: for dissolved MEL / dissolved PRM: highest dissolved concentration, sodium phosphate buffer pH 6.5, 37 °C. The procedure:
Solubility experiments were conducted in sodium phosphate buffer solutions at pH 6.5 and 37 °C to simulate intestinal physiological conditions. For each experiment, an excess crystalline solid was sieved through a 300 μm sieve and introduced into a flask with a screw top containing 100 mL of the medium. The solution was stirred at 200 rpm using a magnetic stir bar for 48 h to reach the equilibrium state. […] After each sampling, the volume of the liquid removed from the suspension was not compensated. The withdrawn suspension was filtered through 0.2 μm nylon filters and diluted prior to high-performance liquid chromatography (HPLC) analysis. The solubility experiment for each crystal form was repeated in triplicate. After the last sample collection, the remaining solid material in the suspension was filtered, dried, and characterized by IR and PXRD.
A C18 HPLC column (YMC-Pack ODS-A column, 4.6 mm × 250 mm, 5 μm) with a flow rate of 1 mL min^–1 was employed, and the column temperature was set at 25 °C. The binary mobile phase consisted of acetonitrile and sodium phosphate buffer (pH 6.5) in a volume ratio of 25:75. The samples were diluted appropriately with the mobile phase, and the absorbance was measured at 347 nm.

As for `CN1C(C(=O)Nc2ccccn2)=C(O)c2sc(Cl)cc2S1(=O)=O.CNC(=O)NC` [LRM 1,3-dimethyl urea], the “IDR vs parent API (fold)” value in data set [1] (pH 1.2) was 28 x; in data set [1] (pH 7.4), 19 x. In data set [2], the “bioavailability vs parent API (fold)” value is 2.5 x.
As for `CN1C(C(=O)Nc2ccccn2)=C(O)c2sc(Cl)cc2S1(=O)=O.O=C(O)c1ccc(O)cc1` [LRM 4-hydroxy benzoic acid], the “solubility vs parent API (fold)” value in data set [3] (in H2O) is reported as “improved solubility in H2O (x 1.6–6.9)”.
Take `CN1C(C(=O)Nc2ccccn2)=C(O)c2sc(Cl)cc2S1(=O)=O.Cl` [LRM HCl]: in data set [1] (pH 7), the “dissolution vs parent API (fold)” value is given as “improved dissolution at pH 7 (x 1.3–1.6)”.
For the molecule `CN1C(C(=O)Nc2ccccn2)=C(O)c2sc(Cl)cc2S1(=O)=O.N` [LRM NH3], in data set [1] (pH 7), the “dissolution vs parent API (fold)” value was “improved dissolution at pH 7 (x 1.3–1.6)”.
`CN1C(C(=O)Nc2ccccn2)=C(O)c2sc(Cl)cc2S1(=O)=O.O=C(O)c1ccccc1` [LRM benzoic acid]: the “solubility vs parent API” value in data set [3] (in H2O) is “no solubility advantage in H2O”.
Turning to `CN1C(C(=O)Nc2ccccn2)=C(O)c2sc(Cl)cc2S1(=O)=O.O=C(O)CCCC(=O)O` [LRM glutaric acid], the “solubility vs parent API” value in data set [3] (in H2O) is “no solubility advantage in H2O”.
Turning to `CN1C(C(=O)Nc2ccccn2)=C(O)c2sc(Cl)cc2S1(=O)=O.CS(=O)(=O)O` [LRM methanesulfonic acid], the “dissolution vs parent API (fold)” value in data set [1] (pH 7) is listed as “improved dissolution at pH 7 (x 1.3–1.6)”.
Regarding `CN1C(C(=O)Nc2ccccn2)=C(O)c2sc(Cl)cc2S1(=O)=O.O=C(O)c1ccccc1O` [LRM salicylic acid], in data set [3] (in H2O), the “solubility vs parent API” value is listed as “no solubility advantage in H2O”.
On to `Cc1cnc(NC(=O)C2=C(O)c3ccccc3S(=O)(=O)N2C)s1.O=C(O)c1ccc(O)cc1` [MEL 4-hydroxybenzoic acid], for which the “solubility vs parent API” value in data set [3] (pH 6.5) is “higher solubility”. In addition, the “bioavailability vs parent API (fold)” value in data set [2] was 1.1–1.6 x.
In the case of `Cc1cnc(NC(=O)C2=C([O-])c3ccccc3S(=O)(=O)N2C)s1.O.[K+]` [MEL KOH H2O], in data set [1] (pH 5.6), the “dissolution behavior vs parent API” value was “improved dissolution behavior”. For the same molecule, the “bioavailability vs parent API” value in data set [2] (in vivo) is recorded as “no bioavailability advantage”.
`Cc1cnc(NC(=O)C2=C(O)c3ccccc3S(=O)(=O)N2C)s1.N=C(N)NCCCC(N)C(=O)O` [MEL arginine]: the “dissolution behavior vs parent API” value in data set [1] (pH 7.5) is reported as “improved dissolution behavior”.
For the molecule `Cc1cnc(NC(=O)C2=C(O)c3ccccc3S(=O)(=O)N2C)s1.NC(CS)C(=O)O` [MEL cysteine], in data set [1] (pH 7.5), the “dissolution behavior vs parent API” value is reported as “improved dissolution behavior at pH 7.5”.
On to `Cc1cnc(NC(=O)C2=C(O)c3ccccc3S(=O)(=O)N2C)s1.O=C(O)/C=C/C(=O)O` [MEL fumaric acid], for which, in data set [2], the “bioavailability vs parent API” value is recorded as “no bioavailability advantage”.
As to `Cc1cnc(NC(=O)C2=C(O)c3ccccc3S(=O)(=O)N2C)s1.NCC(=O)O` [MEL glycine], the “dissolution behavior vs parent API” value in data set [1] (pH 7.5) is given as “improved dissolution behavior at pH 7.5”.
With `Cc1cnc(NC(=O)C2=C(O)c3ccccc3S(=O)(=O)N2C)s1.O=C(O)CO` [MEL glycolic acid], the “bioavailability vs parent API” value in data set [2] is given as “no bioavailability advantage”.
In the case of `Cc1cnc(NC(=O)C2=C(O)c3ccccc3S(=O)(=O)N2C)s1.O=C(O)CCc1ccccc1` [MEL hydrocinnamic acid], in data set [2], the “bioavailability vs parent API” value is given as “no bioavailability advantage”.
As for `Cc1cnc(NC(=O)C2=C(O)c3ccccc3S(=O)(=O)N2C)s1.Nc1ccncc1` [MEL-4AP], the “dissolved MEL” value in data set [4] is recorded as 0.68 ± 0.05 mg mL^–1. For the same molecule, in data set [4] (pH 6.5, 37 °C), the “dissolved MEL, times higher than that of the pure MEL” value was 8.1 times and the “time for which the supersaturation state is maintained” value was over 300 min. Moreover, the “apparent solubility compared with the pure API” value in data set [4] (pH 6.5, this work) is “higher solubility at pH 6.5”.
On to `CN(C)c1ccncc1.Cc1cnc(NC(=O)C2=C(O)c3ccccc3S(=O)(=O)N2C)s1` [MEL-4DMP], for which the “dissolved MEL” value in data set [4] is given as 0.85 ± 0.02 mg mL^–1. In addition, the “time for which the supersaturation state is maintained” value in data set [4] (pH 6.5) is “more than 200 min”. In addition, the “dissolved MEL, times higher than that of the pure MEL” value in data set [4] (pH 6.5, 37 °C) worked out at 10.2 times.
On to `CN1C(C(=O)Nc2ccccn2)=C(O)c2ccccc2S1(=O)=O.OCCNCCO` [PRM diethanolamine], for which the “bioavailability vs parent API” value in data set [2] was “higher bioavailability”.
As to `CN1C(C(=O)Nc2ccccn2)=C(O)c2ccccc2S1(=O)=O.NCCO` [PRM ethanolamine], the “bioavailability vs parent API” value in data set [2] is on record as “higher bioavailability”.
With `CN1C(C(=O)Nc2ccccn2)=C(O)c2ccccc2S1(=O)=O.Cc1nc(-c2ccc(OCC(C)C)c(C#N)c2)sc1C(=O)O` [PRM febuxostat], the “dissolution vs parent API (fold)” value in data set [1] (pH 6.8) is on record as 2.8 x.
`CN1C(C(=O)Nc2ccccn2)=C(O)c2ccccc2S1(=O)=O.COc1cc(/C=C/C(=O)O)ccc1O` [PRM ferulic acid]: the “IDR vs parent API (fold)” value in data set [1] (pH 2) was 1.7 x.
For `CN1C(C(=O)Nc2ccccn2)=C(O)c2ccccc2S1(=O)=O.COC(=O)c1ccc(O)cc1` [PRM methylparaben], in data set [1] (pH 1.2), the “IDR vs parent API” value was “no solubility and IDR advantages”; the “dissolution rates in the sink condition” value is “superior dissolution rates”.
Regarding `CN1C(C(=O)Nc2ccccn2)=C(O)c2ccccc2S1(=O)=O.OCCN(CCO)CCO` [PRM triethanolamine], the “bioavailability vs parent API” value in data set [2] is on record as “higher bioavailability”.
Turning to `CN1C(C(=O)Nc2ccccn2)=C(O)c2ccccc2S1(=O)=O.NC(N)=O` [PRM urea], the “solubility vs parent API” value in data set [3] was “no solubility advantage”.
For the molecule `CN1C(C(=O)Nc2ccccn2)=C(O)c2ccccc2S1(=O)=O.COc1cc(C=O)ccc1O` [PRM vanillin], in data set [1] (pH 1.2), the “IDR vs parent API” value was “no solubility and IDR advantages”; the “dissolution rates in the sink condition” value is on record as “superior dissolution rates”. Besides, in data set [3] (pH 1.2), the “solubility vs parent API” value is “no solubility and IDR advantages”.
Turning to `CN1C(C(=O)Nc2ccccn2)=C(O)c2ccccc2S1(=O)=O` [PRM, Piroxicam], the “dissolved PRM” value in data set [4] is 0.39 mg mL^–1 and 0.39 ± 0.01 mg mL^–1. The “time to highest solubility / maximum dissolved concentration / equilibrium” value in data set [4] (pH 6.5) worked out at 60 min. Moreover, the thermodynamic solubility at 48 h in data set [4] (pH 6.5, aqueous buffer) was determined as 140 µg/mL (≈ 423 µM).
Consider `CN1C(C(=O)Nc2ccccn2)=C(O)c2ccccc2S1(=O)=O.Nc1ccncc1` [PRM-4AP], for which the “dissolved PRM” value in data set [4] is 1.08 mg mL^–1 and 1.08 ± 0.02 mg mL^–1. The “dissolved PRM, times higher than that of the anhydrous PRM” value (from here on “dissolved PRM, times higher than that”) in data set [4] (pH 6.5, 37 °C) was found to be 2.8 times. The “apparent solubility compared with the pure API” value in data set [4] (pH 6.5, this work) is “higher solubility”.
Take `CN(C)c1ccncc1.CN1C(C(=O)Nc2ccccn2)=C(O)c2ccccc2S1(=O)=O` [PRM-4DMP]: the “dissolved PRM” value in data set [4] is 1.07 mg mL^–1 and 1.07 ± 0.01 mg mL^–1. The “apparent solubility compared with the pure API” value in data set [4] (pH 6.5) is given as “higher solubility”. For the same molecule, the “dissolved PRM, times higher than that” value in data set [4] (pH 6.5, 37 °C) turned out to be 2.8 times.
Turning to `C1CNCCN1.CN1C(C(=O)Nc2ccccn2)=C(O)c2ccccc2S1(=O)=O.CN1C(C(=O)Nc2ccccn2)=C(O)c2ccccc2S1(=O)=O` [PRM-PPZ], the “dissolved PRM” value in data set [4] is 0.43 mg mL^–1 and 0.43 ± 0.04 mg mL^–1. In addition, the “apparent solubility compared with the pure API” value in data set [4] (pH 6.5) is given as “higher solubility”. In data set [4] (pH 6.5, 37 °C), the “dissolved PRM, times higher than that” value was found to be 1.1 times.
For `CN1C(C(=O)Nc2ccccn2)=C(O)c2sccc2S1(=O)=O.Cl` [TNM HCl], the “IDR vs parent API” value in data set [1] (pH 7) is “no solubility and IDR advantages at pH 7”. For the same molecule, the “solubility vs parent API” value in data set [3] (pH 7) was “no solubility and IDR advantages at pH 7”.
Regarding `CN1C(C(=O)Nc2ccccn2)=C(O)c2sccc2S1(=O)=O.O=C(O)c1ccccc1` [TNM benzoic acid], the “IDR vs parent API (fold)” value in data set [1] (pH 7) is 2 x. Besides, the “solubility vs parent API” value in data set [3] (pH 7) is “no solubility advantage”.
In the case of `CN1C(C(=O)Nc2ccccn2)=C(O)c2sccc2S1(=O)=O.O=C(O)CO` [TNM glycolic acid], the “IDR vs parent API” value in data set [1] (pH 4.5) was “no IDR advantage at pH 4.5 and 6.8”; in data set [1] (pH 6.8), “no IDR advantage at pH 4.5 and 6.8”.
Consider `CN1C(C(=O)Nc2ccccn2)=C(O)c2sccc2S1(=O)=O.CS(=O)(=O)O` [TNM methanesulfonic acid], for which the “IDR vs parent API” value in data set [1] (pH 7) is “no solubility and IDR advantages at pH 7”. In addition, in data set [3] (pH 7), the “solubility vs parent API” value was “no solubility and IDR advantages at pH 7”.
For the molecule `C1CNCCN1.CN1C(C(=O)Nc2ccccn2)=C(O)c2sccc2S1(=O)=O` [TNM piperazine], the “IDR vs parent API (fold)” value in data set [1] (pH 7) was 2.5 x. In addition, the “solubility vs parent API (fold)” value in data set [3] (pH 7) is on record as 5.5 x.
Consider `CN1C(C(=O)Nc2ccccn2)=C(O)c2sccc2S1(=O)=O.Oc1cccc(O)c1O` [TNM pyrogallol], for which, in data set [1] (pH 7), the “IDR vs parent API (fold)” value was 2.4–4.2 x. In addition, the “solubility vs parent API (fold)” value in data set [3] (pH 7) is 5.8–10.1 x.
With `CN1C(C(=O)Nc2ccccn2)=C(O)c2sccc2S1(=O)=O.O=C1NS(=O)(=O)c2ccccc21` [TNM saccharin], the “IDR vs parent API” value in data set [1] (pH 4.5) is “no IDR advantage at pH 4.5 and 6.8”; in data set [1] (pH 6.8) it was “no IDR advantage at pH 4.5 and 6.8”.
On to `CN1C(C(=O)Nc2ccccn2)=C(O)c2sccc2S1(=O)=O.O=C(O)c1ccccc1O` [TNM salicylic acid], for which the “IDR vs parent API” value in data set [1] (pH 4.5) was “no IDR advantage at pH 4.5 and 6.8”; in data set [1] (pH 6.8), “no IDR advantage at pH 4.5 and 6.8”; in data set [1] (pH 7), “no solubility and IDR advantages at pH 7”. In data set [3] (pH 7), the “solubility vs parent API” value was “no solubility and IDR advantages at pH 7”.
Turning to `CN1C(C(=O)Nc2ccccn2)=C(O)c2sccc2S1(=O)=O.O=C(O)CCC(=O)O` [TNM succinic acid], the “IDR vs parent API” value is “no IDR advantage at pH 4.5 and 6.8” in data set [1] (pH 4.5); “no IDR advantage at pH 4.5 and 6.8” in data set [1] (pH 6.8).

By solubility (thermodynamic) is commonly meant solubility found after equilibrating the solid with the medium.
